Laboratory results from publication PMC7067850, “Identification of highly potent and selective inhibitor, TIPTP, of the p22phox-Rubicon axis as a therapeutic agent for rheumatoid arthritis” (Scientific Reports, 2020).

What was measured:
[1] = test system: collagen antibody-induced arthritis; assay: Collagen antibody-induced arthritis (CAIA) mouse model, mice transduced with Ad-Rubicon; assay type: in vivo
Method: Collagen antibody-induced arthritis mouse model was induced as previously described. Mice received a single‐dose intravenous injection of anti-type II collagen antibody cocktail (8 mg/mouse) (Arthrogen‐CIA Arthritogenic Monoclonal Antibody, no. 53010; Chondrex) on day −3 and an intraperitoneal injection of 100 μg of lipopolysaccharide on day 0 and were then monitored for the indicated times. Mice were sacrificed under anesthesia for the indicated times and knee joints were isolated. All animal-related procedures were reviewed and approved by the Institutional Animal Care and Use Committee of the Hanyang University (protocol 2017–0219). All animal experiments were performed in accordance with Korean Food and Drug Administration guidelines. […]
Figure 5 TIPTP protects Rubicon-expressed CAIA mice mortality. […] (a) The survival of CAIA mice was monitored for 15 days and mortality was measured for n = 10 mice per group. […] (b) Clinical arthritis score and swelling of paws, or (c) representative H&E staining of the ankle joints of each group were determined at 9 days of CAIA (left). […] Statistical significance was determined by two-way analysis of variance (ANOVA) with Tukey’s posttest; **P < 0.01 compared with Ad-Vector+Vehicle (a). […]
Arthritis mice were evaluated for disease progression three times a week as follows ^1,2. […]

[2] = test system: synoviocytes from RA patients; assay: Synoviocytes from RA patients ex vivo (co-IP, confocal, ELISA, immunoblot); assay type: cell-based, human
Description: Synovial tissue specimens were obtained from all female patients with RA (n = 16, 60.5 years ± 6.0) or OA (n = 10, 59.5 years ± 7.2) during open synovectomy or joint replacement surgery at Hanyang University Hospital. All patients gave informed consent, and the procedure was approved by the Ethics Committee of Hanyang University Hospital approved this study (2017-05-003). This study was approved by the bioethics committee of The Red Cross (Seoul, South Korea), which oversees studies using samples from human subjects, and all methods were performed in accordance with the relevant guidelines and regulations.
Immunoblot and immunoprecipitation assays were performed as described previously[18],[23]. For immunoprecipitation, cells were harvested and then lysed in NP-40 buffer supplemented with a complete protease inhibitor cocktail (Roche). After pre-clearing with protein A/G agarose beads (GE Healthcare Life Science) for 1 h at 4 °C, whole-cell lysates were used for immunoprecipitation with the indicated antibodies. Generally, 1–4 μg of commercial antibody was added to 1 ml of cell lysates and incubated at 4 °C for 8 to 12 h. After the addition of protein A/G agarose beads for 6 h, immunoprecipitants were extensively washed with lysis buffer and eluted with SDS loading buffer by boiling for 5 min.
Cell culture supernatants, mice sera and synovial fluid were analyzed for cytokine content using the BD OptEIA ELISA set (BD Pharmingen) for the detection of TNF-α, IL-6, IL-1β, and IL-18. All assays were performed as recommended by the manufacturer.
Figure 6 TIPTP is active for cells from healthy humans or patients with RA. (a and b) LPS-primed human monocytes were treated with TIPTP (0.01, 0.1, 1 μM) for 30 min, and then activated with ATP for the 30 min. (a) IP with αp22phox or αRubicon, followed by IB with αRubicon or αp22phox. Loading control was used for IB with αActin. (b) Culture supernatants were harvested and analyzed for cytokines by ELISA (left). […] (e) Culture supernatants were harvested and analyzed for cytokines by ELISA (left). […]

Compound: C[C@@H](Oc1cccc(-n2cc3c(n2)CCCC3)c1)C(=O)Nc1nnc(C(F)(F)F)s1 [TIPTP, (R)-2-(3-(4,5,6,7-tetrahydro-2H-indazol-2-yl)phenoxy)-N-(5-(trifluoromethyl)-1,3,4-thiadiazol-2-yl)propanamide]
- survival rate ([1]; CAIA mice transduced with Ad-Rubicon, TIPTP every 2 days intraperitoneal, monitored 15 days (Fig. 5a)): 90%
- arthritic clinical scores, paw swelling, and histopathological evaluation vs vehicle ([1]; Rubicon-expressing and vector CAIA mice (Fig. 5b,c)): markedly decreased
- p22phox–Rubicon interaction ([2]; RA patient cells, WB and confocal (Fig. 6c,d)): efficiently inhibit
- p22phox-NOX2, NOX4, or NOX5 interaction ([2]; RA patient synoviocytes (Supplemental Fig. 7)): not inhibit
- caspase-1 activation, and IL-1β and IL-18 production ([2]; freshly isolated RA synoviocytes without NLRP3 agonists (Fig. 6e)): inhibited in a dose-dependent manner
